Here are results for seven compounds from ChEMBL document CHEMBL3132769, “Fragment growing to retain or alter the selectivity of anchored kinase hinge-binding fragments” (Medchemcomm, 2014).

For one assay, the species on record is Homo sapiens. Put plainly: Inhibition of human full length PKA expressed in baculovirus assessed as substrate phosphorylation using fluorescence-labelled peptides as substrate at 0.2 uM after 90 mins by microfluidic peptide phosphorylation assay.
The target of assay [1] is T1, Serine/threonine-protein kinase Nek2 (Homo sapiens) (UniProt P51955).
T1 sequence (whole entry): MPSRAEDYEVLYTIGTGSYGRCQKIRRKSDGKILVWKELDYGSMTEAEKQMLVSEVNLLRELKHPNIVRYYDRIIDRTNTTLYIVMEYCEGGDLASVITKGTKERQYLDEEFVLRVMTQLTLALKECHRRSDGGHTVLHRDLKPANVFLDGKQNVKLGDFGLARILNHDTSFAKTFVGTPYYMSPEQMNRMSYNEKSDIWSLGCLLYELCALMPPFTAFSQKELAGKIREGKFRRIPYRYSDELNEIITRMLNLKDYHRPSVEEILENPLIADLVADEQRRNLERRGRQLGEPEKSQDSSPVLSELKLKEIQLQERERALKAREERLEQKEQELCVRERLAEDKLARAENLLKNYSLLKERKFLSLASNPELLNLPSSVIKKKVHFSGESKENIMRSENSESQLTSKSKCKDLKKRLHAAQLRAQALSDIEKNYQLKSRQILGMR
Put plainly: Inhibition of human full length NEK2 expressed in baculovirus assessed as substrate phosphorylation using fluorescence-labelled peptides as substrate at 0.06 uM after 90 mins by microfluidic peptide phosphorylation assay.

Assay [2] addresses T2, Serine/threonine-protein kinase D2 (Homo sapiens) (UniProt Q9BZL6).
T2 sequence (whole entry): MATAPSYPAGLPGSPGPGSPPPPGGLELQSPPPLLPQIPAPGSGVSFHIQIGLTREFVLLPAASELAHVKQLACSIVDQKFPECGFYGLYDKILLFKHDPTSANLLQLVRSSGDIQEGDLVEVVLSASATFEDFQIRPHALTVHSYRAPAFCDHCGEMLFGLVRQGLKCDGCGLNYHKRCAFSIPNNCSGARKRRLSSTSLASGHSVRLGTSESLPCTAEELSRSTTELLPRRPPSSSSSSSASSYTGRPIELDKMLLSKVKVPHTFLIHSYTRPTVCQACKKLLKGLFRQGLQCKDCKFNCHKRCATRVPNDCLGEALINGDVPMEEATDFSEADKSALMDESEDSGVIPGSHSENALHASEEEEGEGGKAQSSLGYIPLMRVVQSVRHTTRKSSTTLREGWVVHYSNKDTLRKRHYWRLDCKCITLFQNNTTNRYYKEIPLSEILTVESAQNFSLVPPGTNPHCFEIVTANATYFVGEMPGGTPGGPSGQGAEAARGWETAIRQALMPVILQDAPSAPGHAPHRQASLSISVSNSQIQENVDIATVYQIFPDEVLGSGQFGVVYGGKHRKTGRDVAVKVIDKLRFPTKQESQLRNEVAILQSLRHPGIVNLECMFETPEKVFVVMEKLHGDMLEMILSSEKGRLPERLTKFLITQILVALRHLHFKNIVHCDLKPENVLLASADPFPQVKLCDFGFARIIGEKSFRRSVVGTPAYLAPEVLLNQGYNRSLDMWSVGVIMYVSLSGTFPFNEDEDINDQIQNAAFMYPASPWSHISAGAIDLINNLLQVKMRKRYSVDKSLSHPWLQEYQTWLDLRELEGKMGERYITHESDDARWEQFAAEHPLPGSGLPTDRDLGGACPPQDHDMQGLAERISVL
The assay is described as follows: Inhibition of human full length PKD2 expressed in baculovirus assessed as substrate phosphorylation using fluorescence-labelled peptides as substrate at 9 uM after 90 mins by microfluidic peptide phosphorylation assay.

Assay [3] has as its target Tyrosine-protein kinase BTK (Homo sapiens) (UniProt Q06187). The assay is described as follows: Inhibition of human full length BTK expressed in baculovirus assessed as substrate phosphorylation using fluorescence-labelled peptides as substrate at 95 uM after 90 mins by microfluidic peptide phosphorylation assay.
Assay [4] concerns the target Insulin-like growth factor 1 receptor (Homo sapiens) (UniProt P08069). Put plainly: Inhibition of human IGF1R catalytic domain expressed in baculovirus assessed as substrate phosphorylation using fluorescence-labelled peptides as substrate at 95 uM after 90 mins by microfluidic peptide phosphorylation assay.
For assay [5], the target named is T2, Serine/threonine-protein kinase D2 (Homo sapiens). Put plainly: Inhibition of human full length PKD2 expressed in baculovirus assessed as substrate phosphorylation using fluorescence-labelled peptides as substrate at 8 uM after 90 mins by microfluidic peptide phosphorylation assay.
Assay [6] addresses RAF proto-oncogene serine/threonine-protein kinase (Homo sapiens) (UniProt P04049). Put plainly: Inhibition of human truncated c-Raf expressed in baculovirus assessed as substrate phosphorylation using fluorescence-labelled peptides as substrate at 70 uM after 90 mins by microfluidic peptide phosphorylation assay.
In assay [7] the target is Fibroblast growth factor receptor 3 (Homo sapiens) (UniProt P22607). The assay is described as follows: Inhibition of human FGFR3 catalytic domain expressed in baculovirus assessed as substrate phosphorylation using fluorescence-labelled peptides as substrate at 70 uM after 90 mins by microfluidic peptide phosphorylation assay.
For assay [8], the target named is Tyrosine-protein kinase ABL1 (Homo sapiens) (UniProt P00519). The assay is described as follows: Inhibition of human full-length ABL expressed in baculovirus assessed as substrate phosphorylation using fluorescence-labelled peptides as substrate at 1000 uM after 90 mins by microfluidic peptide phosphorylation assay.
Assay [9] addresses T3, Protein kinase C zeta type (Homo sapiens) (UniProt Q05513).
T3 sequence (whole entry): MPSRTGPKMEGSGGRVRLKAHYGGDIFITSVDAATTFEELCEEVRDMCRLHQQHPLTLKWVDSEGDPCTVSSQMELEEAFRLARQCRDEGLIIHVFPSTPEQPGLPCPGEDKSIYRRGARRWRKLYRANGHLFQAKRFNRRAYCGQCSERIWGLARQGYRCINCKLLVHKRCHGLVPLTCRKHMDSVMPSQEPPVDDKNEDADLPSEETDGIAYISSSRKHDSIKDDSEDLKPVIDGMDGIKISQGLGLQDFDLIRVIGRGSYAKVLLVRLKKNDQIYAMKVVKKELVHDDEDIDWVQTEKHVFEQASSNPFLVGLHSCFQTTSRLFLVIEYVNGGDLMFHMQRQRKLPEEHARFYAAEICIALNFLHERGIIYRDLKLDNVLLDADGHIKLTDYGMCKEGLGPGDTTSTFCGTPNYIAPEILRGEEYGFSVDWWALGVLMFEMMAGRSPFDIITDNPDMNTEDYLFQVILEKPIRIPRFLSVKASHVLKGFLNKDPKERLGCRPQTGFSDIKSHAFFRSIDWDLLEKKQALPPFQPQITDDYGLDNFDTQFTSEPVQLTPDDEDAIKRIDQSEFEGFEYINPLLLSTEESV
The assay is described as follows: Inhibition of human full length PKC zeta expressed in baculovirus assessed as substrate phosphorylation using fluorescence-labelled peptides as substrate at 1000 uM after 90 mins by microfluidic peptide phosphorylation assay.

Assay [10] has as its target Protein kinase C beta type (Homo sapiens) (UniProt P05771). Put plainly: Inhibition of human truncated PKC beta1 expressed in baculovirus assessed as substrate phosphorylation using fluorescence-labelled peptides as substrate at 1000 uM after 90 mins by microfluidic peptide phosphorylation assay.

Sequence of Protein kinase C beta type (Homo sapiens) (P05771 2-671 limits assumed): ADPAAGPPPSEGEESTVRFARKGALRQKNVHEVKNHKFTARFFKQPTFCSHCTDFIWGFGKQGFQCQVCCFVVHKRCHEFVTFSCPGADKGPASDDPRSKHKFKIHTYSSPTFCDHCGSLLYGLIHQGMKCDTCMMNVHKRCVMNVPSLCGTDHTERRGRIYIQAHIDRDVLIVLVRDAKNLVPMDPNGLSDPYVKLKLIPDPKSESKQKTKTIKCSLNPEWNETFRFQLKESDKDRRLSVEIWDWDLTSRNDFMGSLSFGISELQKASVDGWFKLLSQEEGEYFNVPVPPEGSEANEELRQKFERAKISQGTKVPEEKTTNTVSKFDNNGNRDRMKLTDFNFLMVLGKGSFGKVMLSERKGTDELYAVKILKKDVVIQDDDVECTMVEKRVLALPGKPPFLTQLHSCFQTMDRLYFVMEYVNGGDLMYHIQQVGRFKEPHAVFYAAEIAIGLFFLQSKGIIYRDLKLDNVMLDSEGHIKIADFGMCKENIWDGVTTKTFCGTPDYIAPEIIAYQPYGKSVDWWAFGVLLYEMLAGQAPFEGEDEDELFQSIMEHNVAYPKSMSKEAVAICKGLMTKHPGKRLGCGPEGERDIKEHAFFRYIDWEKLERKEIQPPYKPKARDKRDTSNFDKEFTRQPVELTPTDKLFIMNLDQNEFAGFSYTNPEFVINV
Sequence of Fibroblast growth factor receptor 3 (Homo sapiens) (P22607 23-806 limits assumed): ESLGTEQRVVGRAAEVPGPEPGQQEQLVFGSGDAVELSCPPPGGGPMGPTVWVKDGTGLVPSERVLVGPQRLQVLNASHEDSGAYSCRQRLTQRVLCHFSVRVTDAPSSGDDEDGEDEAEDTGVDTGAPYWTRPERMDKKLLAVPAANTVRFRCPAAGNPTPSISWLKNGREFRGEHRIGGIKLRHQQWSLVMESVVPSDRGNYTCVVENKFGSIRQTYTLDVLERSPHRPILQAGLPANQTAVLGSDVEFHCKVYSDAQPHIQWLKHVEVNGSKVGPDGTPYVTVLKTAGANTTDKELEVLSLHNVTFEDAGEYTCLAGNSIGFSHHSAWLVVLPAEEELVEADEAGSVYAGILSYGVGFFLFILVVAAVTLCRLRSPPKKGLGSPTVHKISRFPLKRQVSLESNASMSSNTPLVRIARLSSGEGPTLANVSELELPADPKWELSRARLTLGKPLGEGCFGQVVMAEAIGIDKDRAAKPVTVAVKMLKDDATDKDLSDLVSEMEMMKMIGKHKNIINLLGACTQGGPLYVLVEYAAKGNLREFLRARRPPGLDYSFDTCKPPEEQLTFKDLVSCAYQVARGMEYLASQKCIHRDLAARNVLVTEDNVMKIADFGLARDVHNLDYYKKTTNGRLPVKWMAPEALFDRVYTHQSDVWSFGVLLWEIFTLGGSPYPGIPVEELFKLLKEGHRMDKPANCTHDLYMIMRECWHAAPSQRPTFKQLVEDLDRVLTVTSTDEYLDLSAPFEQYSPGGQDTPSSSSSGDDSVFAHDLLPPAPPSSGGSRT
Sequence of RAF proto-oncogene serine/threonine-protein kinase (Homo sapiens) (P04049 whole entry, the tested form may be a part): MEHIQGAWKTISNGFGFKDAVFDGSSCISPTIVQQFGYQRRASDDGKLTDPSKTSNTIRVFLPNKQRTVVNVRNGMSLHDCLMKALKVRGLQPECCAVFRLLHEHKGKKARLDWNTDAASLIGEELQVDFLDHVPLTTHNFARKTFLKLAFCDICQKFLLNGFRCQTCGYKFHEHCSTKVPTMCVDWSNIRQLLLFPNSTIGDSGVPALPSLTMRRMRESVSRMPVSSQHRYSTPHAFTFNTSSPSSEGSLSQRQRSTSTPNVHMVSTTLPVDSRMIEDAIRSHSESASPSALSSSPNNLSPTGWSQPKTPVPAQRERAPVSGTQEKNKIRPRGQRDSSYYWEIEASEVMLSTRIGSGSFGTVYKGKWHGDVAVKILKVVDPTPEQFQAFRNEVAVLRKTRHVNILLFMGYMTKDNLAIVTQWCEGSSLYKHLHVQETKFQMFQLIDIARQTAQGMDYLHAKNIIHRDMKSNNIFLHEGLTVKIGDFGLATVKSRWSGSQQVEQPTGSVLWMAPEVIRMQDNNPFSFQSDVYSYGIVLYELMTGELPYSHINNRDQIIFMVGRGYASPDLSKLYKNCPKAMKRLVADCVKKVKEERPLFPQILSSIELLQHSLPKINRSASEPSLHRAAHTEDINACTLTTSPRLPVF
Sequence of Tyrosine-protein kinase BTK (Homo sapiens) (Q06187 whole entry, the tested form may be a part): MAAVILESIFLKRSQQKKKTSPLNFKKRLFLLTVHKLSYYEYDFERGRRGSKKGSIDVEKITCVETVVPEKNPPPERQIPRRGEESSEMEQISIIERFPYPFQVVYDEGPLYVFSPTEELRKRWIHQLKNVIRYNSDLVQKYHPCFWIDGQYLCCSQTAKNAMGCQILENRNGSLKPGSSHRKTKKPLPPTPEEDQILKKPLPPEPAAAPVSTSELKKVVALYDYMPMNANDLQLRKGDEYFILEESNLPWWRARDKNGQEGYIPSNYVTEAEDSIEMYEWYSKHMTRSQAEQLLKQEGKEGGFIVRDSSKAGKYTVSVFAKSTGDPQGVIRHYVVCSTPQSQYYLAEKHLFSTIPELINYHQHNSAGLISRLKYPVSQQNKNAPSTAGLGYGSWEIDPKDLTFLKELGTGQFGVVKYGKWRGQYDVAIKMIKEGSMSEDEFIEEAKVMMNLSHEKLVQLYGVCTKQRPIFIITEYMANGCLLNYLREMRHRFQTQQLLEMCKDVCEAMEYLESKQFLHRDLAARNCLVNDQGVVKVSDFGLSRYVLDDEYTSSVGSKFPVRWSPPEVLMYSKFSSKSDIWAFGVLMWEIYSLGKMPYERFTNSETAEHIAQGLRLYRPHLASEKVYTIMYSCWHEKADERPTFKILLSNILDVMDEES
Sequence of Tyrosine-protein kinase ABL1 (Homo sapiens) (P00519 whole entry): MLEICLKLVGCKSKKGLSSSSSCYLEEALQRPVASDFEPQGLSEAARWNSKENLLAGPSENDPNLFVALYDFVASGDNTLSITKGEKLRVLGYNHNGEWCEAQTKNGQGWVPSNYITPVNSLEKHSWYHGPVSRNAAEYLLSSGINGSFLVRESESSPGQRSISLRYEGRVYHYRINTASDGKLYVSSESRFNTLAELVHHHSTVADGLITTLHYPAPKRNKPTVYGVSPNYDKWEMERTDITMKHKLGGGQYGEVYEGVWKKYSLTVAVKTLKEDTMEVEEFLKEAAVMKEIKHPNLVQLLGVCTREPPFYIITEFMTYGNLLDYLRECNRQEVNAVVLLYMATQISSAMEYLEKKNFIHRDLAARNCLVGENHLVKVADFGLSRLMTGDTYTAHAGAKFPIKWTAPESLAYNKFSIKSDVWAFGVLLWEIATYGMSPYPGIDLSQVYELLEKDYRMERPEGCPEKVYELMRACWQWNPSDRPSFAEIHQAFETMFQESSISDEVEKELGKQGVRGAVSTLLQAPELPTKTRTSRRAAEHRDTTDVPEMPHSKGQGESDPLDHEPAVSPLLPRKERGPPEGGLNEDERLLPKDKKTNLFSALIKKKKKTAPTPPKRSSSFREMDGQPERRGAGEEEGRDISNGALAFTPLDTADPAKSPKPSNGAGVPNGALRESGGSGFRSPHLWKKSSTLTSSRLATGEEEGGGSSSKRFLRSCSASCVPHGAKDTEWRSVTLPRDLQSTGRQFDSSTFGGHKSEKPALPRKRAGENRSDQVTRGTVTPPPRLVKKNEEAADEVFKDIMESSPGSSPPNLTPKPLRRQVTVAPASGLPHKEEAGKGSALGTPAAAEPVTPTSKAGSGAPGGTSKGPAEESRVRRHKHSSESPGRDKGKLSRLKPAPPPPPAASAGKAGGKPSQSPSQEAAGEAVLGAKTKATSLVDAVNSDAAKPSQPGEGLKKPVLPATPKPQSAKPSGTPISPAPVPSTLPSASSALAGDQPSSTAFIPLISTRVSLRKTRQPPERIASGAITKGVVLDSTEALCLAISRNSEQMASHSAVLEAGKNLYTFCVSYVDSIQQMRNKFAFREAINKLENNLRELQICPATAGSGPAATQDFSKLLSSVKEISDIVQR

For orientation: inhibition means the percentage by which the read-out fell short of the control. On to `Clc1ccc(C2(c3ccc(-c4ncnc5[nH]cnc45)cc3)CCNCC2)cc1`, for which, in the assay listed under Homo sapiens, the inhibition worked out at 100%.
In the case of `NC1(Cc2ccc(Cl)cc2)CCN(c2ncnc3[nH]ccc23)CC1`, the inhibition in [1] worked out at 0%.
Take `NCC1CN(c2ncnc3[nH]c4cnccc4c23)CCO1` (stereo unspecified): the inhibition in [2] was determined as 68%.
With `NCCc1ccc(-c2ncnc3[nH]cnc23)cc1`, the inhibition in assay [3] was found to be 17%; in assay [4], 20.5%.
Take `NCC1CCN(c2ncnc3[nH]ccc23)CC1`: the inhibition in assay [5] came to 28.5%.
As to `CNCc1ccc(-c2ncnc3[nH]cnc23)cc1`, the inhibition in [6] came out at 39.5%; in assay [7], 27.5%.
In the case of `c1cnc2[nH]ccc2c1`, the figures for the inhibition in assay [8], in [9] and in [10] were 42%, 31.5% and 46%, respectively.
